Results as given in patent US6184365A, “Anthracycline derivatives having 4-amino-2,4,6-trideoxy-2 fluoro-α-L-talopyranosyl group” (priority 1996, dated 2001).
Converted amounts (≈) assume the structure as drawn.

What was measured:
[1] = earlier derivatives; cited from earlier work
[2] = earlier derivatives; comparison with daunomycin or adriamycin; cited from earlier work
[3] = clinical treatment of cancer-bearing patients; cited from earlier work
[4] = test system: human lung non-small cell carcinoma (PC-14); experiment: Growth inhibition of human lung non-small cell carcinoma (PC-14); assay type: cell-based; settings: Homo sapiens, PC-14, 72 h
Description: (§1) Adriamycin was used as a comparative compound and was tested in the same manner as above.
(§2) The different kinds of human cancer cells tested were six kinds indicated below, including human chronic myelogenous leukemia (K562), human vaginal melanoma (HMV-1), human nasopharyngeal carcinoma (KB), human gastric adenocarcinoma (MKN-1), human lung non-small cell carcinoma (PC-14) and human bladder carcinoma (T24).

[5] = test system: human nasopharyngeal carcinoma (KB); experiment: Growth inhibition of human nasopharyngeal carcinoma (KB); assay type: cell-based; settings: 72 h
Description: as §1, §2

[6] = test system: adriamycin-resistant P388 cells (P388/ADR); experiment: Growth inhibition of adriamycin-resistant P388 cells (P388/ADR); assay type: cell-based, mouse; settings: Mus musculus, 72 h
Description: as §1

[7] = test system: human vaginal melanoma (HMV-1); experiment: Growth inhibition of human vaginal melanoma (HMV-1); assay type: cell-based; settings: 72 h
Description: as §1, §2

Leukemia L-1210 cells = experiment: Antitumor activity against leukemia in CDF1 mice inoculated with Leukemia L-1210 cells; assay type: in vivo, mouse; settings: for Increase (%) in life-span (T/C, %): i.p., once a day for 9 days, as hydrochloride
Description: Thus, to evaluate the antitumor effects of the novel compounds of this invention against experimental tumors in animals, CDF1 mice (four mice per group) were intraperitoneally inoculated with cells of Leukemia L-1210 at an amount of 1×10^5 cells/mouse. Since an elapse of 24 hours from the inoculation of the leukemia cells, a test compound of this invention was administered intraperitoneally to the mice under test once a day for consecutive 9 days, with the test compound being given as its hydrochloride in the form of a solution in a physiological saline. […] In the meanwhile, mice of the control group (the untreated group) were administered only with physiological saline after the inoculation of the L-1210 cells. During the observation period, the number of the surviving mice was counted for both the treated group and the control group, and the mean survival days of mice of both the treated group and the control group were calculated. Then, the percentages (%) of the increase in the life-span of the treated mice was estimated, as T/C (%), in terms of the mean survival day (C) of the untreated mice of the control group and the mean survival day (T) of the treated mice of the treated group. For comparison purposes, similar tests were effected using daunomycin (as hydrochloride) and adriamycin (as hydrochloride). The mean survival day of mice of the control group (the untreated group) was 8 to 9 days, and the mean survival day of mice of the comparative groups having received the administration of daunomycin or adriamycin usually varied dependently on the dosage of the compound tested.
Incidentally, in respect of the fractional numbers parenthesized below the numerical values of increase (%) in the life-span, the denominator of the fraction denotes the number of mice tested in one test group but the numerator of the fraction denotes the number of mice which survived for 60 days or longer.

[8] = test system: human gastric adenocarcinoma (MKN-1); experiment: Growth inhibition of human gastric adenocarcinoma (MKN-1); assay type: cell-based; settings: Homo sapiens, MKN-1, 72 h
Description: as §1, §2

[9] = test system: human chronic myelogenous leukemia (K562); experiment: Growth inhibition of human chronic myelogenous leukemia (K562); assay type: cell-based; settings: Homo sapiens, K562, 72 h
Description: as §1, §2

[10] = test system: mouse leukemia P388 cells; experiment: Growth inhibition of mouse leukemia P388 cells; assay type: cell-based; settings: P388, 72 h
Description: as §1

[11] = test system: human bladder carcinoma (T24); experiment: Growth inhibition of human bladder carcinoma (T24); assay type: cell-based; settings: Homo sapiens, 72 h
Description: as §1, §2

In the case of COc1cccc2c1C(=O)c1c(O)c3c(c(O)c1C2=O)C[C@@](O)(C(=O)CO)C[C@@H]3O[C@@H]1O[C@@H](C)[C@@H](O)[C@@H](O)[C@H]1F [7-O-(2,6-Dideoxy-2-fluoro-α-L-talopyranosyl)adriamycinone], the “solubility in water” value [1] is given as “barely soluble in water” and the “antitumor activity” value [2] is given as “remarkable antitumor activity”.
In the case of COc1cccc2c1C(=O)c1c(O)c3c(c(O)c1C2=O)C[C@@](O)(C(=O)CO)C[C@@H]3O[C@@H]1O[C@@H](C)[C@@H](O)[C@@H](N)[C@H]1F [7-O-(3-amino-2,3,6-trideoxy-2-fluoro-α-L-talopyranosyl)adriamycinone], the “solubility in water” value [1] is listed as “soluble in water” and the “antitumor activity” value [2] is listed as “antitumor activity a little higher than that of the latter”.
In the case of COc1cccc2c1C(=O)c1c(O)c3c(c(O)c1C2=O)C[C@@](O)(C(=O)CO)C[C@@H]3O[C@H]1C[C@H](N)[C@H](O)[C@H](C)O1 [Adriamycin, reference compound], the side-effects [3] is given as “serious side-effects such as leukocytopenia, alopecia, myocardiopathy and others”, the IC50 [4] is given as 0.62 µg/mL (≈ 1.14 µM) and the IC50 [5] is given as 0.05 µg/mL (≈ 0.092 µM). For the same compound, the IC50 [6] was 2.5 µg/mL (≈ 4.6 µM), the IC50 [7] was 0.14 µg/mL (≈ 0.258 µM) and the “Increase (%) in life-span (T/C, %)” value (Leukemia L-1210 cells; 0.15 mg/kg/day) was 140%. The “Increase (%) in life-span (T/C, %)” value (Leukemia L-1210 cells; 0.3 mg/kg/day) was 132%, the “Increase (%) in life-span (T/C, %)” value (Leukemia L-1210 cells; 0.6 mg/kg/day) was 208% and the “Increase (%) in life-span (T/C, %)” value (Leukemia L-1210 cells; 1.25 mg/kg/day) was 330%. The “Increase (%) in life-span (T/C, %)” value (Leukemia L-1210 cells; 2.5 mg/kg/day) was 273%, the “Increase (%) in life-span (T/C, %)” value (Leukemia L-1210 cells; 5 mg/kg/day) was 177% and the “development of toxicity in words” value (Leukemia L-1210 cells; 2.5 to 5 mg/kg/day) was “accompanied by the development of toxicity”. For the same compound, the “percentages of increase in the life-span (T/C, %)” value (Leukemia L-1210 cells; 2.5 to 5 mg/kg/day) was “about 330%”, the IC50 [8] was 0.25 µg/mL (≈ 0.46 µM) and the IC50 [9] was 0.39 µg/mL (≈ 0.718 µM). The IC50 [10] was 0.032 µg/mL (≈ 0.0589 µM) and the IC50 [11] was 0.16 µg/mL (≈ 0.294 µM).
